Experimental data from PubChem BioAssay (NCI).
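Cells were grown in 96-well plates and exposed to each compound for 48 hours at five concentrations; endpoints were interpolated linearly between bracketing concentrations, or set to the highest concentration if not reached. TGI is the concentration that stops growth completely.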

Tests used:
Test in all cases: growth of human tumour cells (NCI), 48 h
[1] = system: MDA-N
[2] = system: SN12C renal
[3] = system: MCF7 breast
[4] = system: DU-145 prostate
[5] = system: NCI-H226 lung
[6] = system: NCI-H460 lung
[7] = system: OVCAR-8 ovarian
[8] = system: PC-3 prostate
[9] = system: HS 578T breast
[10] = system: T-47D breast
[11] = system: MDA-MB-435
[12] = system: SNB-75 CNS
[13] = system: LOX IMVI melanoma
[14] = system: SK-MEL-5 melanoma
[15] = system: K-562 leukemia
[16] = system: SF-539 CNS
[17] = system: KM12 colon
[18] = system: M14 melanoma
[19] = system: NCI/ADR-RES ovarian
[20] = system: IGROV1 ovarian
[21] = system: HOP-92 NSCLC
[22] = system: OVCAR-3 ovarian
[23] = system: SW-620 colon
[24] = system: EKVX NSCLC
[25] = system: OVCAR-4 ovarian
[26] = system: UACC-62 melanoma
[27] = system: HCT-15 colon
[28] = system: CCRF-CEM leukemia
[29] = system: UACC-257 melanoma
[30] = system: TK-10 renal
[31] = system: A498 renal
[32] = system: HOP-62 NSCLC
[33] = system: HT29 colon
[34] = system: U251 CNS
[35] = system: NCI-H23 lung
[36] = system: CAKI-1 renal
[37] = system: SR leukemia
[38] = system: SF-295 CNS
[39] = system: 786-0 renal
[40] = system: COLO 205 colon
[41] = system: RPMI-8226 leukemia
[42] = system: OVCAR-5 ovarian
[43] = system: MALME-3M melanoma
[44] = system: HL-60(TB) leukemia
[45] = system: NCI-H522 lung
[46] = system: RXF 393 renal
[47] = system: ACHN renal
[48] = system: SK-MEL-28 melanoma
[49] = system: UO-31 renal
[50] = system: MOLT-4 leukemia
[51] = system: A549 NSCLC
[52] = system: SNB-19 CNS
[53] = system: BT-549 breast
[54] = system: MDA-MB-231 breast
[55] = system: SK-MEL-2 melanoma
[56] = system: SK-OV-3 ovarian
[57] = system: SF-268 CNS
[58] = system: HCT-116 colon
[59] = system: HCC-2998 colon

Measured: TGI

O=C(O)/C=C\C(=O)Nc1ccc2c(c1)C(=O)c1cc(F)ccc1-2
not listed: [59]
> 100 µM: all other assays above

Cc1nc(C)c(N2CCN(C#N)CC2)c(=O)[nH]1
not listed: [42] | [55]
> 100 µM: all other assays above
